We go through 24 compounds from patent publication US8614201B2 (Janssen Pharmaceutica NV, priority 2009, dated 2013).

Molecules are shown by their SMILES.

This assay has as its target Human TRPA1 (Homo sapiens, UniProt O75762). Nature of the assay: Assay 1: In vitro cellular testing of TRPA1 modulation (CHO-TREx, Fluo-3 calcium fluorescence, AITC agonist). The following applies: CHO-TREx cells expressing human TRPA1; Fluo-3 fluorescence (FLIPR/Tetra); agonist 15 μM allyl isothiocyanate (AITC); 30 minute antagonist incubation. Further details: expressed in transfected cells; host or cells: CHO-TREx cells (Invitrogen), vector pcDNA4/TO. It is filed as cell-based. The gist of the method:
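Antagonist potency is the 50% reduction of the AITC (15 μM) calcium response, Hill-fitted against no-antagonist and 10 μM ruthenium red controls. Fluo-3-loaded (4 μM) CHO-TREx cells with tetracycline-inducible human TRPA1 got compound in HEPES saline pH 7.4 for 30 min, usually from 10 μM in three-fold dilutions.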

Chain of Human TRPA1 (O75762 whole entry): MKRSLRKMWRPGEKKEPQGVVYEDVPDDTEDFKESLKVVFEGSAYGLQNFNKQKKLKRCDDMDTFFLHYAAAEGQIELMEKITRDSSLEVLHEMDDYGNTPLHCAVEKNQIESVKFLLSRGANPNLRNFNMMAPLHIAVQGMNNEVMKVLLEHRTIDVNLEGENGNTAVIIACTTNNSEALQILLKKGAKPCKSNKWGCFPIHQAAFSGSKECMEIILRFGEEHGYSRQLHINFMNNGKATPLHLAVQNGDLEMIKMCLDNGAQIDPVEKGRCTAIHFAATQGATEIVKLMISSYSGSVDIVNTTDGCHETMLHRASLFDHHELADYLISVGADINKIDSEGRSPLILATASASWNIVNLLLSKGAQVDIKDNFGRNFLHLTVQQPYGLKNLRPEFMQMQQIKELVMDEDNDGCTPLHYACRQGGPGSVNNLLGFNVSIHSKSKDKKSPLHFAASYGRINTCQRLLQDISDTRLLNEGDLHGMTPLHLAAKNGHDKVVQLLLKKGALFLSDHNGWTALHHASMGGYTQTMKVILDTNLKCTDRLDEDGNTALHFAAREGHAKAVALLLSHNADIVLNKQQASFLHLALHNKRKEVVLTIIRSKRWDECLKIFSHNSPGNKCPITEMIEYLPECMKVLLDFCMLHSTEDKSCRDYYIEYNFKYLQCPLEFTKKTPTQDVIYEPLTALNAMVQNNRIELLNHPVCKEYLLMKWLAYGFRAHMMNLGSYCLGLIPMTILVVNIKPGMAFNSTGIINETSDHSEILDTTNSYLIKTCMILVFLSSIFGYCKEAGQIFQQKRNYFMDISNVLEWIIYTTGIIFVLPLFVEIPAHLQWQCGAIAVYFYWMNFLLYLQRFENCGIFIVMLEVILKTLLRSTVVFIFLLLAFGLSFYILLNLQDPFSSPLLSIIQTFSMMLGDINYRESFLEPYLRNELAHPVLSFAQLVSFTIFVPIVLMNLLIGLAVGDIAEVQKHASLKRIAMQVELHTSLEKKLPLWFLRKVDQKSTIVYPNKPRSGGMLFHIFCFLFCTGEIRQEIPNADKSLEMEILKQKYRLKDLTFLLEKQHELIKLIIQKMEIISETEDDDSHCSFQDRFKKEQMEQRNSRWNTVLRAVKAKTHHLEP

In general, IC50 refers to the concentration that inhibits the measured activity by half. Regarding `O=C(NCc1cc(-c2ccc(C(F)(F)F)cc2)nc(N2CCN(c3ccccc3F)CC2)c1)[C@@H]1CC(F)(F)CN1S(=O)(=O)c1ccc(Cl)s1` [Example 358, 1-[(5-Chlorothiophen-2-yl)sulfonyl]-4,4-difluoro-N-({2-[4-(2-fluorophenyl)piperazin-1-yl]-6-[4-(trifluoromethyl)phenyl]pyridin-4-yl}methyl)-L-prolinamide], the half-inhibitory concentration (IC50) was > 10 µM.

For `O=C(NCc1cc(-c2ccc(C(F)(F)F)cc2)nc(N2CCN(c3ccccc3F)CC2)c1)[C@@H]1C=CCN1S(=O)(=O)c1ccc(Cl)s1` [Example 359, (2S)-1-[(5-Chlorothiophen-2-yl)sulfonyl]-N-({2-[4-(2-fluorophenyl)piperazin-1-yl]-6-[4-(trifluoromethyl)phenyl]pyridin-4-yl}methyl)-2,5-dihydro-1H-pyrrole-2-carboxamide], the IC50 worked out at 1.19 µM.

With `CNc1cc(CNC(=O)[C@@H]2CC(F)(F)CN2S(=O)(=O)c2ccc(F)cc2)cc(-c2ccc(C(F)(F)F)cc2)n1` [Example 360, 4,4-Difluoro-1-[(4-fluorophenyl)sulfonyl]-N-({2-(methylamino)-6-[4-(trifluoromethyl)phenyl]pyridin-4-yl}methyl)-L-prolinamide], the IC50 came out at 2.28 µM.

In the case of `O=C(NCc1cc(-c2ccc(C(F)(F)F)cc2)nc(N2CCN(Cc3ccccc3)CC2)c1)[C@@H]1C=CCN1S(=O)(=O)c1ccc(F)cc1` [Example 361, (2S)—N-({2-(4-Benzylpiperazin-1-yl)-6-[4-(trifluoromethyl)phenyl]pyridin-4-yl}methyl)-1-[(4-fluorophenyl)sulfonyl]-2,5-dihydro-1H-pyrrole-2-carboxamide], the IC50 was found to be 0.452 µM.

Turning to `O=C(NCc1cc(-c2ccc(C(F)(F)F)cc2)nc(N2CCN(Cc3cccnc3)CC2)c1)[C@@H]1CC(F)(F)CN1S(=O)(=O)c1ccc(F)cc1` [Example 363, 4,4-Difluoro-1-[(4-fluorophenyl)sulfonyl]-N-({2-[4-(pyridin-3-ylmethyl)piperazin-1-yl]-6-[4-(trifluoromethyl)phenyl]pyridin-4-yl}methyl)-L-prolinamide], the IC50 was found to be 4.87 µM.

With `O=C(NCc1cc(NCc2ccncc2)nc(-c2ccc(C(F)(F)F)cc2)c1)[C@@H]1CCCN1S(=O)(=O)c1ccc(Cl)s1` [Example 364, 1-[(5-Chlorothiophen-2-yl)sulfonyl]-N-({2-[(pyridin-4-ylmethyl)amino]-6-[4-(trifluoromethyl)phenyl]pyridin-4-yl}methyl)-L-prolinamide], the IC50 turned out to be 2.73 µM.

With `O=C(NCc1cc(-c2ccc(C(F)(F)F)cc2)nc(N2CCN(Cc3cccnc3)CC2)c1)[C@@H]1C=CCN1S(=O)(=O)c1ccc(F)cc1` [Example 365, (2S)-1-[(4-Fluorophenyl)sulfonyl]-N-({2-[4-(pyridin-3-ylmethyl)piperazin-1-yl]-6-[4-(trifluoromethyl)phenyl]pyridin-4-yl}methyl)-2,5-dihydro-1H-pyrrole-2-carboxamide], the IC50 came out at 1.69 µM.

Take `O=C(NCc1cc(-c2ccc(C(F)(F)F)cc2)nc(N2CCN(Cc3cccnc3)CC2)c1)[C@@H]1CC(F)(F)CN1S(=O)(=O)c1ccc(Cl)s1` [Example 366]: the half-inhibitory concentration (IC50) turned out to be 1.65 µM.

For `O=C(NCc1cc(-c2ccc(C(F)(F)F)cc2)nc(N2CCN(Cc3ccccc3)CC2)c1)[C@@H]1CCCN1S(=O)(=O)c1ccc(Cl)s1` [Example 367, N-({2-(4-Benzylpiperazin-1-yl)-6-[4-(trifluoromethyl)phenyl]pyridin-4-yl}methyl)-1-[(5-chlorothiophen-2-yl)sulfonyl]-L-prolinamide], the IC50 was found to be 0.018 µM.

As for `O=C(NCc1cc(-c2ccc(C(F)(F)F)cc2)nc(N2CCN(Cc3ccccc3)CC2)c1)[C@@H]1C=CCN1S(=O)(=O)c1ccc(Cl)s1` [Example 368, (2S)—N-({2-(4-Benzylpiperazin-1-yl)-6-[4-(trifluoromethyl)phenyl]pyridin-4-yl}methyl)-1-[(5-chlorothiophen-2-yl)sulfonyl]-2,5-dihydro-1H-pyrrole-2-carboxamide], the IC50 came to 0.418 µM.

Regarding `CC(C)CN1CCN(c2cc(CNC(=O)[C@@H]3CCCN3S(=O)(=O)c3ccc(Cl)s3)cc(-c3ccc(C(F)(F)F)cc3)n2)CC1` [Example 369, 1-[(5-Chlorothiophen-2-yl)sulfonyl]-N-({2-[4-(2-methylpropyl)piperazin-1-yl]-6-[4-(trifluoromethyl)phenyl]pyridin-4-yl}methyl)-L-prolinamide], the IC50 was 0.079 µM.

As for `CC(C)CN1CCN(c2cc(CNC(=O)[C@@H]3CCCN3S(=O)(=O)c3ccc(F)cc3)cc(-c3ccc(C(F)(F)F)cc3)n2)CC1` [Example 370, 1-[(4-Fluorophenyl)sulfonyl]-N-({2-[4-(2-methylpropyl)piperazin-1-yl]-6-[4-(trifluoromethyl)phenyl]pyridin-4-yl}methyl)-L-prolinamide], the half-inhibitory concentration (IC50) is 0.115 µM.

Take `O=C(NCc1cc(NCc2cccnc2)nc(-c2ccc(C(F)(F)F)cc2)c1)[C@@H]1CCCN1S(=O)(=O)c1ccc(Cl)s1` [Example 371, 1-[(5-Chlorothiophen-2-yl)sulfonyl]-N-({2-[(pyridin-3-ylmethyl)amino]-6-[4-(trifluoromethyl)phenyl]pyridin-4-yl}methyl)-L-prolinamide]: the IC50 came to 2.06 µM.

Consider `CNc1cc(CNC(=O)[C@@H]2C=CCN2S(=O)(=O)c2ccc(F)cc2)cc(-c2ccc(C(F)(F)F)cc2)n1` [Example 372, (2S)-1-[(4-Fluorophenyl)sulfonyl]-N-({2-(methylamino)-6-[4-(trifluoromethyl)phenyl]pyridin-4-yl}methyl)-2,5-dihydro-1H-pyrrole-2-carboxamide], for which the IC50 worked out at 1.61 µM.

Regarding `O=C(NCc1cc(-c2ccc(C(F)(F)F)cc2)nc(N2CCN(Cc3ccccc3)CC2)c1)[C@@H]1CCCN1S(=O)(=O)c1ccc(F)cc1` [Example 373, N-({2-(4-Benzylpiperazin-1-yl)-6-[4-(trifluoromethyl)phenyl]pyridin-4-yl}methyl)-1-[(4-fluorophenyl)sulfonyl]-L-prolinamide], the IC50 was 0.043 µM.

As for `O=C(NCc1cc(NCc2ccccn2)nc(-c2ccc(C(F)(F)F)cc2)c1)[C@@H]1CC(F)(F)CN1S(=O)(=O)c1ccc(F)cc1` [Example 374, 4,4-Difluoro-1-[(4-fluorophenyl)sulfonyl]-N-({2-[(pyridin-2-ylmethyl)amino]-6-[4-(trifluoromethyl)phenyl]pyridin-4-yl}methyl)-L-prolinamide], the IC50 was found to be 2.09 µM.

On to `O=C(NCc1cc(-c2ccc(C(F)(F)F)cc2)nc(N2CCN(Cc3ccccn3)CC2)c1)[C@@H]1CC(F)(F)CN1S(=O)(=O)c1ccc(Cl)s1` [Example 375, 1-[(5-Chlorothiophen-2-yl)sulfonyl]-4,4-difluoro-N-({2-[4-(pyridin-2-ylmethyl)piperazin-1-yl]-6-[4-(trifluoromethyl)phenyl]pyridin-4-yl}methyl)-L-prolinamide], for which the IC50 came to 1.94 µM.

With `CN(C)c1cc(CNC(=O)[C@@H]2CC(F)(F)CN2S(=O)(=O)c2ccc(Cl)s2)cc(-c2ccc(C(F)(F)F)cc2)n1` [Example 376, 1-[(5-Chlorothiophen-2-yl)sulfonyl]-N-({2-(dimethylamino)-6-[4-(trifluoromethyl)phenyl]pyridin-4-yl}methyl)-4,4-difluoro-L-prolinamide], the half-inhibitory concentration (IC50) stood at 0.241 µM.

As for `O=C(NCc1cc(-c2ccc(C(F)(F)F)cc2)nc(N2CCN(Cc3ccccc3)CC2)c1)[C@@H]1CC(F)(F)CN1S(=O)(=O)c1ccc(Cl)s1` [Example 377, N-({2-(4-Benzylpiperazin-1-yl)-6-[4-(trifluoromethyl)phenyl]pyridin-4-yl}methyl)-1-[(5-chlorothiophen-2-yl)sulfonyl]-4,4-difluoro-L-prolinamide], the IC50 is 4.71 µM.

`CNc1cc(CNC(=O)[C@@H]2C=CCN2S(=O)(=O)c2ccc(Cl)s2)cc(-c2ccc(C(F)(F)F)cc2)n1` [Example 379, (2S)-1-[(5-Chlorothiophen-2-yl)sulfonyl]-N-({2-(methylamino)-6-[4-(trifluoromethyl)phenyl]pyridin-4-yl}methyl)-2,5-dihydro-1H-pyrrole-2-carboxamide]: the half-maximal inhibitory concentration (IC50) turned out to be 0.38 µM.

For the compound `O=C(NCc1cc(NCc2ccccn2)nc(-c2ccc(C(F)(F)F)cc2)c1)[C@@H]1C=CCN1S(=O)(=O)c1ccc(F)cc1` [Example 380, (2S)-1-[(4-Fluorophenyl)sulfonyl]-N-({2-[(pyridin-2-ylmethyl)amino]-6-[4-(trifluoromethyl)phenyl]pyridin-4-yl}methyl)-2,5-dihydro-1H-pyrrole-2-carboxamide], the IC50 came to 0.523 µM.

Regarding `O=C(NCc1cc(-c2ccc(C(F)(F)F)cc2)nc(N2CCN(Cc3ccncc3)CC2)c1)[C@@H]1CC(F)(F)CN1S(=O)(=O)c1ccc(Cl)s1` [Example 381, 1-[(5-Chlorothiophen-2-yl)sulfonyl]-4,4-difluoro-N-({2-[4-(pyridin-4-ylmethyl)piperazin-1-yl]-6-[4-(trifluoromethyl)phenyl]pyridin-4-yl}methyl)-L-prolinamide], the 50% inhibitory concentration (IC50) was 0.729 µM.

Consider `O=C(NCc1cc(NCc2ccccn2)nc(-c2ccc(C(F)(F)F)cc2)c1)[C@@H]1CC(F)(F)CN1S(=O)(=O)c1ccc(Cl)s1` [Example 382, 1-[(5-Chlorothiophen-2-yl)sulfonyl]-4,4-difluoro-N-({2-[(pyridin-2-ylmethyl)amino]-6-[4-(trifluoromethyl)phenyl]pyridin-4-yl}methyl)-L-prolinamide], for which the IC50 stood at 5.09 µM.

For `CC(C)CN1CCN(c2cc(CNC(=O)[C@@H]3CC(F)(F)CN3S(=O)(=O)c3ccc(Cl)s3)cc(-c3ccc(C(F)(F)F)cc3)n2)CC1` [Example 383, 1-[(5-Chlorothiophen-2-yl)sulfonyl]-4,4-difluoro-N-({2-[4-(2-methylpropyl)piperazin-1-yl]-6-[4-(trifluoromethyl)phenyl]pyridin-4-yl}methyl)-L-prolinamide], the IC50 was 0.488 µM.
